The values below come from patent US10010516B2, “Method for regulating retinal endothelial cell viability” (The University of Tennessee Research Foundation, priority 2012, dated 2018).

“Also recorded” adds a separate entry of the source.

Data set [1] has as its system Y79 retinoblastoma cells. The data set can be described thus: Cell death ELISA in Y79 retinoblastoma cells. It is filed as cell-based, human. The following applies: melphalan 0.8, 1 or 4 μg/mL tested.
Data set [2] concerns NF-κB. The data set can be described thus: Western blot of phospho-NF-κB / total NF-κB in RECs. The conditions noted are these: melphalan 4 μg/mL. It is filed as cell-based, human. Here is the method: Western blotting. After appropriate treatments and rinsing with cold phosphate-buffered saline, REC were lysed in the lysis buffer containing the protease and phosphatase inhibitors and scraped into the tubes. Equal amounts of protein from the cell or tissue extracts were separated on the pre-cast tris-glycine gel (Invitrogen, Carlsbad, Calif.), blotted onto a nitrocellulose membrane. After blocking in TBST (10 mM Tris-HCl buffer, pH 8.0, 150 mM NaCl, 0.1% Tween 20) and 5% (w/v) BSA, the membrane was treated with NF-κB, Phospho-NF-κB p38^MAPK, Phospho-p38^MAPK antibodies (1:500) followed by incubation with horseradish peroxidase labeled secondary antibodies. The antigen-antibody complexes were detected using chemilluminescence reagent kit (Thermo Scientific).
Transfections. REC were transfected with ICAM-1 siRNA, TNF-α siRNA, or NF-κB siRNA at a final concentration of 20 nM using Lipofectamine™ RNAiMAX Transfection Reagent according to the manufacturer's instructions. After transfection, cells were starved in MVGS-free Medium 131 for 24 hours and used as required.

Data set [3] has as its system RECs.
Data set [4] concerns RECs. The following applies: melphalan 4 μg/mL; cited from earlier work.
For data set [5], the system named is p53. Nature of the data set: Immunoblot of phosphorylated and total p53 in RECs. It is filed as cell-based, human. Background: Immunoblotting shows a protein as a band on a membrane.
Data set [6] has as its system paxillin. Nature of the data set: Immunoblot of paxillin (Y118) phosphorylation in irradiated RECs. The format is cell-based, human. The conditions noted are these: irradiated RECs 30 Gy, 24 hours, P<0.05.
The test system of data set [7] is ICAM-1. The data set can be described thus: ICAM-1 ELISA / Western blot in RECs treated with melphalan. The format is cell-based, human. The following applies: TNF-α siRNA or etanercept + melphalan. A general note: ELISA stands for enzyme-linked immunosorbent assay.

On to `N[C@@H](Cc1ccc(N(CCCl)CCCl)cc1)C(=O)O` [melphalan], for which, in data set [1], the “apoptosis of Y79 retinoblastoma cells” value was 4 μg/mL produced maximal apoptosis and best induces apoptosis at 4 μg/mL. In data set [2], the “induction of NF-κB phosphorylation” value is given as “time-dependent” and the “time of maximum increase in NF-κB Ser536 phosphorylation” value turned out to be 30 min. Further, the “DNA fragmentation in RECs” value in data set [3] (melphalan 4 μg/mL, 24 hours) was “did increase DNA fragmentation”. Also, the “increase in REC death” value in data set [4] is “greater than 6 fold”.
Turning to `Oc1ccc(-c2nc(-c3ccncc3)c(-c3ccc(F)cc3)[nH]2)cc1` [SB202190], in data set [5] (concomitant treatment with RITA, P>0.05), the “effect on RITA-induced p53 accumulation” value is “did not significantly alter”. Further, the “phosphorylation of paxillin at Y118” value in data set [6] is recorded as “significantly reduced”.
etanercept: in data set [7], the “melphalan-induced ICAM-1 levels with TNF-α inhibition” value is “neither TNF-α siRNA nor etanercept could reduce ICAM-1 levels; also recorded: Neither TNFα siRNA nor etanercept reduced ICAM-1 levels”. Moreover, the “REC apoptosis after melphalan treatment (etanercept)” value in data set [3] (etanercept + melphalan) is given as “did not reach statistical significance”.
Regarding `OCc1ccc(-c2ccc(-c3ccc(CO)s3)o2)s1` [RITA], the p53 accumulation entry in data set [5] (RITA 10 μM for four hours vs untreated RECs, P<0.05) is “significantly enhanced”.
